Experimental data published in paper PMC11012124, “Synthesis of Novel Triazine-Based Chalcones and 8,9-dihydro-7H-pyrimido[4,5-b][1,4]diazepines as Potential Leads in the Search of Anticancer, Antibacterial and Antifungal Agents” (International Journal of Molecular Sciences, 2024).
≈ marks a conversion by molar mass, not a printed value.

How the values were obtained:
MDA-MB-435 = assay: cells; conditions: Homo sapiens, MDA-MB-435, 48 h; for CC50: read-out: LC50
[1] = test system: M. tuberculosis ATCC 27294; assay: Antitubercular broth microdilution MIC; type: cell-based; conditions: Mycobacterium tuberculosis; M. tuberculosis ATCC 27294 (H37Rv); read-out: Minimum inhibitory concentration (MIC)
CAKI-1 = assay: cells; conditions: Homo sapiens, CAKI-1, 48 h; for CC50: read-out: LC50
OVCAR-4 = assay: cells; conditions: Homo sapiens, OVCAR-4, 48 h; for CC50: read-out: LC50
[2] = Hemolytic activity, spectrophotometric; type: cell-based, human; conditions: human, human red blood cells (huRBC), 5% hematocrit, 200 μg/mL, 37 °C
DU-145 = assay: cells; conditions: Homo sapiens, DU-145, 48 h; for CC50: read-out: LC50
SK-MEL-28 = assay: cells; conditions: Homo sapiens, SK-MEL-28, 48 h; for CC50: read-out: LC50
K-562 = assay: cells; conditions: Homo sapiens, K562, 48 h; for GI50: K-562, 48 h; for CC50: read-out: LC50
T-47D = assay: cells; conditions: Homo sapiens, T47D, 48 h; for CC50: read-out: LC50
KM12 = assay: cells; conditions: Homo sapiens, KM12, 48 h; for CC50: read-out: LC50
SK-MEL-2 = assay: cells; conditions: Homo sapiens, SK-MEL-2, 48 h; for CC50: read-out: LC50
NCI-H522 = assay: cells; conditions: Homo sapiens, NCI-H522, 48 h; for CC50: read-out: LC50
NCI/ADR-RES = assay: cells; conditions: Homo sapiens, 48 h
NCI-H460 = assay: cells; conditions: Homo sapiens, NCI-H460, 48 h; for CC50: read-out: LC50
OVCAR-5 = assay: cells; conditions: Homo sapiens, OVCAR-5, 48 h; for CC50: read-out: LC50
[3] = test system: N. gonorrhoeae ATCC 49226; assay: MIC on GC agar plates; type: cell-based, Neisseria gonorrhoeae; conditions: Neisseria gonorrhoeae, ATCC49226, read-out: MIC
Procedure, shortened: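 N. gonorrhoeae (1 × 10^4 CFU) was spotted onto IsoVitaleX-supplemented (1%) GC agar containing graded compound levels. The lowest inhibitory concentration was recorded as the MIC, with oxidase testing used to verify growth, and each assay was done in duplicate on at least two separate occasions.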

IGROV1 = assay: cells; conditions: Homo sapiens, IGROV-1, 48 h; for CC50: read-out: LC50
CCRF-CEM = assay: cells; conditions: Homo sapiens, 48 h; for CC50: read-out: LC50
MCF7 = assay: cells; conditions: Homo sapiens, MCF7, 48 h; for CC50: read-out: LC50
SK-OV-3 = assay: cells; conditions: Homo sapiens, SK-OV-3, 48 h; for CC50: read-out: LC50
TK-10 = assay: cells; conditions: Homo sapiens, TK-10, 48 h; for CC50: read-out: LC50
OVCAR-8 = assay: cells; conditions: Homo sapiens, OVCAR-8, 48 h; for CC50: read-out: LC50
HL-60(TB) = assay: cells; conditions: Homo sapiens, HL-60, 48 h; for CC50: read-out: LC50
SN12C = assay: cells; conditions: Homo sapiens, 48 h; for CC50: read-out: LC50
MALME-3M = assay: cells; conditions: Homo sapiens, 48 h; for CC50: read-out: LC50
SW-620 = assay: cells; conditions: Homo sapiens, SW-620, 48 h; for CC50: read-out: LC50
[4] = test system: Trichophyton mentagrophytes (CCC 202-2000); assay: Antifungal broth microdilution (CLSI); type: cell-based; conditions: Tm: Trichophyton mentagrophytes
Description: Several of the obtained triazine derivatives were evaluated against sensitive fungal species comprising of two yeasts (Candida albicans (ATCC 10231), Cryptococcus neoformans (ATCC 32264)), three dermatophytes (Microsporum gypseum (CCC 115), Trichophyton rubrum (CCC 134-2000), Trichophyton mentagrophytes (CCC 202-2000)), and three Aspergillus fungi ((A. [NT] 26934), A. niger (ATCC 9029), and A. flavus (ATCC 9170)). […] Broth microdilution techniques were performed in 96-well microplates according to the Reference Method for Broth Dilution Antifungal Susceptibility Testing of Yeasts, document M27-A3 [86] and of Filamentous Fungi […]-A8 [87]. […] An inoculum suspension (100 μL) was added to each well (final well volume = 200 μL). One growth control well (containing medium, inoculum, and the same amount of DMSO as used for each compound) and one sterility control well (sample, medium, and sterile water instead of inoculum) were included for each fungus tested. Microtiter plates were incubated in a dark, humid chamber at 30 °C for the time necessary for each fungus. Amphotericin B, Terbinafine, Fluconazole and Itraconazole were used as a positive control. The tests were performed in triplicate.

SR = assay: cells; conditions: Homo sapiens, 48 h

With `CN(C)c1nc(NCCNS(=O)(=O)c2ccc(C3=Nc4c(N)nc(N)nc4NC(c4ccccc4)C3)cc2)nc(Nc2ccc(F)cc2)n1` (stereo not shown) [31a] the GI50 (MDA-MB-435) was 15 µM, the CC50 (MDA-MB-435) was > 100 µM and the MIC [1] was 1.2 µg/mL (≈ 1.75 µM). For the same molecule, the GI50 (CAKI-1) was 9.73 µM, the CC50 (CAKI-1) was > 100 µM and the GI50 (OVCAR-4) was 74.6 µM. For the same molecule, the CC50 (OVCAR-4) was > 100 µM, the hemolysis at 24 h, 200 µg/mL [2] was 1% and the GI50 (DU-145) was > 100 µM. For the same molecule, the CC50 (DU-145) was > 100 µM, the GI50 (SK-MEL-28) was > 100 µM and the CC50 (SK-MEL-28) was > 100 µM. The GI50 (K-562) was 4.33 µM, the CC50 (K-562) was > 100 µM and the GI50 (T-47D) was 5.12 µM. For the same molecule, the CC50 (T-47D) was > 100 µM, the GI50 (KM12) was 8.8 µM and the CC50 (KM12) was > 100 µM. The GI50 (SK-MEL-2) was 28.5 µM, the CC50 (SK-MEL-2) was > 100 µM and the GI50 (NCI-H522) was 77.4 µM. The CC50 (NCI-H522) was > 100 µM, the GI50 (NCI/ADR-RES) was > 100 µM and the CC50 (NCI/ADR-RES; read-out: LC50) was > 100 µM. The GI50 (NCI-H460) was 6.49 µM, the CC50 (NCI-H460) was > 100 µM and the GI50 (OVCAR-5) was > 100 µM. For the same molecule, the CC50 (OVCAR-5) was > 100 µM, the MIC [3] was 8 µg/mL (≈ 11.7 µM) and the GI50 (IGROV1) was 5.76 µM. For the same molecule, the CC50 (IGROV1) was > 100 µM, the GI50 (CCRF-CEM) was 4.02 µM and the CC50 (CCRF-CEM) was > 100 µM. For the same molecule, the GI50 (MCF7) was 3.85 µM, the CC50 (MCF7) was 85.5 µM and the GI50 (SK-OV-3) was > 100 µM. The CC50 (SK-OV-3) was > 100 µM, the GI50 (TK-10) was > 100 µM and the CC50 (TK-10) was > 100 µM. For the same molecule, the GI50 (OVCAR-8) was 61.4 µM, the CC50 (OVCAR-8) was > 100 µM and the GI50 (HL-60(TB)) was 4.24 µM. The CC50 (HL-60(TB)) was > 100 µM, the GI50 (SN12C) was 7.83 µM and the CC50 (SN12C) was > 100 µM. For the same molecule, the GI50 (MALME-3M) was 7.34 µM, the CC50 (MALME-3M) was > 100 µM and the GI50 (SW-620) was 40.4 µM. The CC50 (SW-620) was > 100 µM.

In the case of `CN(C)c1nc(NCCNS(=O)(=O)c2ccc(C3=Nc4c(N)nc(N)nc4NC(c4ccc(C(F)(F)F)cc4)C3)cc2)nc(N2CCOCC2)n1` (stereo not shown) [30g], the GI50 (MDA-MB-435) is reported as 34.2 µM, the CC50 (MDA-MB-435) is reported as > 100 µM and the MIC [4] is reported as > 250 µg/mL. The GI50 (CAKI-1) was 25.9 µM, the CC50 (CAKI-1) was > 100 µM and the GI50 (OVCAR-4) was 37 µM. The CC50 (OVCAR-4) was > 100 µM, the hemolysis at 24 h, 200 µg/mL [2] was 2.4% and the GI50 (DU-145) was 72 µM. The CC50 (DU-145) was > 100 µM, the GI50 (SK-MEL-28) was 34.1 µM and the CC50 (SK-MEL-28) was > 100 µM. For the same molecule, the GI50 (SR) was 18.1 µM, the CC50 (SR; read-out: LC50) was > 100 µM and the GI50 (K-562) was 29.1 µM. The CC50 (K-562) was > 100 µM, the GI50 (T-47D) was 21.3 µM and the CC50 (T-47D) was > 100 µM. For the same molecule, the GI50 (KM12) was 37 µM, the CC50 (KM12) was > 100 µM and the GI50 (SK-MEL-2) was 15.8 µM. For the same molecule, the CC50 (SK-MEL-2) was 57.8 µM, the GI50 (NCI-H522) was 51.7 µM and the CC50 (NCI-H522) was > 100 µM. For the same molecule, the GI50 (NCI-H460) was 36.5 µM, the CC50 (NCI-H460) was > 100 µM and the GI50 (OVCAR-5) was 27 µM. The CC50 (OVCAR-5) was > 100 µM, the GI50 (IGROV1) was 27 µM and the CC50 (IGROV1) was > 100 µM. The GI50 (CCRF-CEM) was 25.9 µM, the CC50 (CCRF-CEM) was > 100 µM and the GI50 (MCF7) was 18.1 µM. The CC50 (MCF7) was > 100 µM, the GI50 (SK-OV-3) was 69.7 µM and the CC50 (SK-OV-3) was > 100 µM. For the same molecule, the GI50 (TK-10) was 54.3 µM, the CC50 (TK-10) was > 100 µM and the GI50 (OVCAR-8) was 59.5 µM. For the same molecule, the CC50 (OVCAR-8) was > 100 µM, the GI50 (HL-60(TB)) was 27.5 µM and the CC50 (HL-60(TB)) was > 100 µM. The GI50 (SN12C) was 35.7 µM, the CC50 (SN12C) was > 100 µM and the GI50 (MALME-3M) was 19.9 µM. The CC50 (MALME-3M) was > 100 µM, the GI50 (SW-620) was 46.9 µM and the CC50 (SW-620) was > 100 µM.
